# Experimental data as given in patent US20250032524A1, “BROAD SPECTRUM AMINOGLYCOSIDES AND USES THEREOF” (REVAGENIX, INC., priority 2022, published 2025).
# How the values were obtained:
# S. enterica = assay: MIC broth microdilution (CLSI); format: cell-based; details: strain ASSE1001, MDR Clinical isolate (CDC CRE panel), CDC AR Bank 0127
# Procedure: (§1) Minimum inhibitory concentrations for representative example compounds herein were determined by a broth microdilution method in accordance with the Clinical and Laboratory Standards Institute (CLSI) guidelines. In brief, organism suspensions were adjusted to a 0.5 McFarland standard to yield a final inoculum between 3×10^5 and 7×10^5 colony-forming units (CFU)/mL. The inoculum was prepared by suspension of a colony from an agar plate that was prepared the previous day. Compound dilutions and inoculum were prepared in sterile, cation adjusted Mueller-Hinton Broth (Beckton Dickinson).
# (§2) Bacteria were suspended in sterile saline and added to each assay plate to obtain a final concentration of 5×10^5 CFU/mL. An inoculum volume of 100 μL was added to wells containing 100 μL of broth with 2-fold serial dilutions of the test compound. All inoculated microdilution trays were incubated in ambient air at 35° C. for 18-24 hours. Following incubation, the lowest concentration of the compound that prevented visible growth (OD 600 nm<0.05) is recorded was the MIC. […] Performance of the assay was monitored by the use of laboratory quality-control strains and a standard compound with a defined MIC spectrum (neomycin), in accordance with CLSI guidelines.
# K. aerogenes = assay: MIC broth microdilution (CLSI); format: cell-based; details: strain AEAE1042, MDR Clinical isolate (CDC CRE panel), CDC AR Bank 0161
# Procedure: as §1, §2
# E. cloacae = assay: MIC broth microdilution (CLSI); format: cell-based; details: strain AECL1089, MDR Clinical isolate (CDC CRE panel), CDC AR Bank 0154
# Procedure: as §1, §2
# P. mirabilis = assay: MIC broth microdilution (CLSI); format: cell-based; details: strain APMI1048, MDR Clinical isolate (CDC CRE panel), CDC AR Bank 0159
# Procedure: as §1, §2
# C. freundii = assay: MIC broth microdilution (CLSI); format: cell-based; details: strain ACSP1001, MDR Clinical isolate (CDC CRE panel), CDC AR Bank 0157
# Procedure: as §1, §2
# S. aureus = assay: MIC broth microdilution (CLSI); format: cell-based
# Procedure: as §1, §2
# P. aeruginosa = assay: MIC broth microdilution (CLSI); format: cell-based
# Procedure: as §1, §2
# A. baumannii = assay: MIC broth microdilution (CLSI); format: cell-based
# Procedure: as §1, §2
# E. coli = assay: MIC broth microdilution (CLSI); format: cell-based
# Procedure: as §1, §2
# K. pneumoniae = assay: MIC broth microdilution (CLSI); format: cell-based
# Procedure: as §1, §2
# [1] = test system: A. baumannii strain CDC-313; assay: Neutropenic mouse lung infection model; format: in vivo; details: neutropenic CD-1 male mice, FIG. 15
smiles,measurement,setting,value
"NC[C@@H]1O[C@H](O[C@H]2[C@@H](O)[C@H](O[C@@H]3[C@@H](O)[C@H](N)C[C@H](N)[C@H]3O[C@H]3O[C@H](CN)[C@@H](O)[C@H](O)[C@H]3N)O[C@@H]2CO)[C@H](N)[C@@H](O)[C@@H]1O [NEO, neomycin, reference compound]",Activity (MIC),S. enterica,+ (MIC threshold for positive activity (+) is ≤16 μg/mL)
same,Activity (MIC),K. aerogenes,+ (MIC threshold for positive activity (+) is ≤16 μg/mL)
same,Activity (MIC),E. cloacae,+ (MIC threshold for positive activity (+) is ≤16 μg/mL)
same,Activity (MIC),P. mirabilis,+ (MIC threshold for positive activity (+) is ≤16 μg/mL)
same,Activity (MIC),C. freundii,− (for inactive (−) is >16 μg/mL)
same,Activity (MIC),"S. aureus; strain NSAU001, wild-type, QC, ATCC 29213",+ (MIC threshold for positive activity (+) is ≤16 μg/mL)
same,Activity (MIC),"S. aureus; strain NSAU1004, MDR Clinical isolate",+ (MIC threshold for positive activity (+) is ≤16 μg/mL)
same,Activity (MIC),"S. aureus; strain NSAU1015, MDR Clinical isolate",+ (MIC threshold for positive activity (+) is ≤16 μg/mL)
same,Activity (MIC),"S. aureus; strain NSAU1023, MDR Clinical isolate",− (for inactive (−) is >16 μg/mL)
same,Activity (MIC),"S. aureus; strain NSAU1063, MDR Clinical isolate",− (for inactive (−) is >16 μg/mL)
same,Activity (MIC),"P. aeruginosa; strain NPAE0001, WT Aph(3')-IIb, QC",− (for inactive (−) is >16 μg/mL)
same,Activity (MIC),"P. aeruginosa; strain NPAE0002, WT Aph(3')-IIb",+ (MIC threshold for positive activity (+) is ≤16 μg/mL)
same,Activity (MIC),"P. aeruginosa; strain NPAE0006, Efflux KO, Aph(3')-IIb",+ (MIC threshold for positive activity (+) is ≤16 μg/mL)
same,Activity (MIC),"P. aeruginosa; strain NPAE0010, MexXY over-expressed, Aph(3')-IIb",− (for inactive (−) is >16 μg/mL)
same,Activity (MIC),"P. aeruginosa; strain NPAE0359, aph(3')-IIb KO (tetR)",− (for inactive (−) is >16 μg/mL)
same,Activity (MIC),"P. aeruginosa; strain NPAE1288, MDR Clinical isolate",− (for inactive (−) is >16 μg/mL)
same,Activity (MIC),"P. aeruginosa; strain NPAE1293, MDR Clinical isolate",− (for inactive (−) is >16 μg/mL)
same,Activity (MIC),"P. aeruginosa; strain NPAE1299, MDR Clinical isolate",− (for inactive (−) is >16 μg/mL)
same,Activity (MIC),"P. aeruginosa; strain NPAE1302, MDR Clinical isolate",− (for inactive (−) is >16 μg/mL)
same,Activity (MIC),"P. aeruginosa; strain NPAE1303, MDR Clinical isolate",− (for inactive (−) is >16 μg/mL)
same,Activity (MIC),"P. aeruginosa; strain NPAE1308, MDR Clinical isolate",− (for inactive (−) is >16 μg/mL)
same,Activity (MIC),"P. aeruginosa; strain NPAE1310, MDR Clinical isolate",+ (MIC threshold for positive activity (+) is ≤16 μg/mL)
same,Activity (MIC),"P. aeruginosa; strain NPAE1313, MDR Clinical isolate",− (for inactive (−) is >16 μg/mL)
same,Activity (MIC),"P. aeruginosa; strain NPAE1316, MDR Clinical isolate",+ (MIC threshold for positive activity (+) is ≤16 μg/mL)
same,Activity (MIC),"P. aeruginosa; strain NPAE1323, MDR Clinical isolate",− (for inactive (−) is >16 μg/mL)
same,Activity (MIC),"A. baumannii; strain NABA0006, WT parent",+ (MIC threshold for positive activity (+) is ≤16 μg/mL)
same,Activity (MIC),"A. baumannii; strain NABA0007, ΔadeJK efflux",+ (MIC threshold for positive activity (+) is ≤16 μg/mL)
same,Activity (MIC),"A. baumannii; strain NABA0020, AME negative strain",+ (MIC threshold for positive activity (+) is ≤16 μg/mL)
same,Activity (MIC),"A. baumannii; strain NABA1427, MDR Clinical isolate",− (for inactive (−) is >16 μg/mL)
same,Activity (MIC),"A. baumannii; strain NABA1433, MDR Clinical isolate",− (for inactive (−) is >16 μg/mL)
same,Activity (MIC),"A. baumannii; strain NABA1434, MDR Clinical isolate",+ (MIC threshold for positive activity (+) is ≤16 μg/mL)
same,Activity (MIC),"A. baumannii; strain NABA1436, MDR Clinical isolate",− (for inactive (−) is >16 μg/mL)
same,Activity (MIC),"A. baumannii; strain NABA1437, MDR Clinical isolate",+ (MIC threshold for positive activity (+) is ≤16 μg/mL)
same,Activity (MIC),"A. baumannii; strain NABA1438, MDR Clinical isolate",− (for inactive (−) is >16 μg/mL)
same,Activity (MIC),"A. baumannii; strain NABA1439, MDR Clinical isolate",− (for inactive (−) is >16 μg/mL)
same,Activity (MIC),"A. baumannii; strain NABA1448, MDR Clinical isolate",− (for inactive (−) is >16 μg/mL)
same,Activity (MIC),"A. baumannii; strain NABA1449, MDR Clinical isolate",+ (MIC threshold for positive activity (+) is ≤16 μg/mL)
same,Activity (MIC),"A. baumannii; strain NABA1450, MDR Clinical isolate",− (for inactive (−) is >16 μg/mL)
same,Activity (MIC),"E. coli; strain AECO1225, MDR Clinical isolate (CDC CRE panel), CDC AR Bank 0118",+ (MIC threshold for positive activity (+) is ≤16 μg/mL)
same,Activity (MIC),"E. coli; strain AECO1226, MDR Clinical isolate (CDC CRE panel), CDC AR Bank 0119",+ (MIC threshold for positive activity (+) is ≤16 μg/mL)
same,Activity (MIC),"E. coli; strain AECO1227, MDR Clinical isolate (CDC CRE panel), CDC AR Bank 0128",+ (MIC threshold for positive activity (+) is ≤16 μg/mL)
same,Activity (MIC),"E. coli; strain NECO0001, WT QC",+ (MIC threshold for positive activity (+) is ≤16 μg/mL)
same,Activity (MIC),"E. coli; strain NECO0002, WT",+ (MIC threshold for positive activity (+) is ≤16 μg/mL)
same,Activity (MIC),"E. coli; strain NECO0003, ΔtolC",+ (MIC threshold for positive activity (+) is ≤16 μg/mL)
same,Activity (MIC),"E. coli; strain NECO0243, empty vector",+ (MIC threshold for positive activity (+) is ≤16 μg/mL)
same,Activity (MIC),"E. coli; strain NECO0244, AAC(6')-Ib",+ (MIC threshold for positive activity (+) is ≤16 μg/mL)
same,Activity (MIC),"E. coli; strain NECO0245, ArmA",+ (MIC threshold for positive activity (+) is ≤16 μg/mL)
same,Activity (MIC),"E. coli; strain NECO0289, APH(3')-Ia",− (for inactive (−) is >16 μg/mL)
same,Activity (MIC),"E. coli; strain NECO0302, AAC(3)-IIa",+ (MIC threshold for positive activity (+) is ≤16 μg/mL)
same,Activity (MIC),"E. coli; strain NECO0350, AAC(2')-I",+ (MIC threshold for positive activity (+) is ≤16 μg/mL)
same,Activity (MIC),"E. coli; strain NECO0359, ANT(4')-Ia",+ (MIC threshold for positive activity (+) is ≤16 μg/mL)
same,Activity (MIC),"K. pneumoniae; strain AKPN1246, MDR Clinical isolate (CDC CRE panel), CDC AR Bank 0139",+ (MIC threshold for positive activity (+) is ≤16 μg/mL)
same,Activity (MIC),"K. pneumoniae; strain AKPN1250, MDR Clinical isolate (CDC CRE panel), CDC AR Bank 0143",+ (MIC threshold for positive activity (+) is ≤16 μg/mL)
same,Activity (MIC),"K. pneumoniae; strain AKPN1253, MDR Clinical isolate (CDC CRE panel), CDC AR Bank 0148",+ (MIC threshold for positive activity (+) is ≤16 μg/mL)
same,Activity (MIC),"K. pneumoniae; strain AKPN1255, MDR Clinical isolate (CDC CRE panel), CDC AR Bank 0153",+ (MIC threshold for positive activity (+) is ≤16 μg/mL)
NCC[C@H](O)C(=O)N[C@@H]1C[C@H](N)[C@@H](O[C@H]2O[C@H](CN)[C@@H](O)[C@H](O)[C@H]2O)[C@H](O)[C@H]1O[C@H]1O[C@H](CO)[C@@H](O)[C@H](N)[C@H]1O [amikacin],in vivo antibacterial activity against the strain,[1],minimal activity
